From ChEMBL document CHEMBL1201862, “PubChem BioAssay data set” (2004)
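Five concentrations, 48 hours, 96-well plates. GI50 marks 50% less growth.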 The source made the active and inactive calls. Cut-off read from the data, not from the text of the source: active = GI50 up to about 1.1 µM and inactive = higher.

Legend:
Experiment in all cases: NCI tumour cell line growth inhibition, 48 h
HT-29 = tested on: HT-29
KM12 = tested on: KM12
NCI/ADR-RES = tested on: NCI/ADR-RES
U-251 = tested on: U-251
A549 = tested on: A549
MCF7 = tested on: MCF7
RPMI-8226 = tested on: RPMI-8226
Malme-3M = tested on: Malme-3M
UACC-62 = tested on: UACC-62
NCI-H522 = tested on: NCI-H522
ACHN = tested on: ACHN
HCC 2998 = tested on: HCC 2998
OVCAR-4 = tested on: OVCAR-4
BT-549 = tested on: BT-549
SF-268 = tested on: SF-268
COLO 205 = tested on: COLO 205
HCT-116 = tested on: HCT-116
SK-OV-3 = tested on: SK-OV-3
TK-10 = tested on: TK-10
K562 = tested on: K562

Measured: GI50

Cc1c2ccncc2c(C)c2c1sc1ccccc12
inactive: HT-29 6.1 µM | KM12 12.1 µM | NCI/ADR-RES 7.08 µM | U-251 10.8 µM | A549 4.33 µM | MCF7 1.84 µM | RPMI-8226 6.87 µM | Malme-3M 10.8 µM | UACC-62 5.24 µM | NCI-H522 5.41 µM | ACHN 3.85 µM | HCC 2998 11.8 µM | OVCAR-4 14.3 µM | BT-549 16.7 µM | SF-268 11.3 µM | COLO 205 12.3 µM | HCT-116 4.49 µM | SK-OV-3 13.1 µM | TK-10 16.9 µM | K562 6.5 µM

COc1cc2nc3n(c2cc1OC)C(O)c1c(Cl)nc(SC)nc1S3 (stereo not given)
inactive: HT-29 3.22 µM | KM12 2.68 µM | NCI/ADR-RES 3.36 µM | U-251 3.37 µM | A549 5.08 µM | MCF7 3.36 µM | RPMI-8226 2.16 µM | Malme-3M 1.2 µM | UACC-62 2.19 µM | NCI-H522 1.72 µM | ACHN 3.3 µM | HCC 2998 4.21 µM | OVCAR-4 5.77 µM | BT-549 2.16 µM | SF-268 3.78 µM | COLO 205 4.78 µM | HCT-116 2.46 µM | SK-OV-3 3.59 µM | TK-10 5.46 µM | K562 3.03 µM

C=CCOC(=O)C1=C(C)N=C2N[C@H](CCCCCCCCC)C[C@@H]3CCC1N23 (stereo not given in full)
inactive: HT-29 27.9 µM | KM12 34 µM | NCI/ADR-RES 22.8 µM | U-251 20.9 µM | A549 30.1 µM | MCF7 18 µM | RPMI-8226 30.7 µM | Malme-3M 17.3 µM | UACC-62 17.7 µM | NCI-H522 16.7 µM | ACHN 21.5 µM | HCC 2998 21.9 µM | OVCAR-4 21 µM | BT-549 19.9 µM | SF-268 19.3 µM | COLO 205 21.3 µM | HCT-116 18.8 µM | SK-OV-3 27.5 µM | TK-10 19.2 µM | K562 30.3 µM

COc1ccc2c3c1OC1C(=O)C=CC4(CC2)N(C)CCC314 (stereo not given)
inactive: HT-29 28.6 µM | KM12 14.1 µM | NCI/ADR-RES 22.9 µM | U-251 19.5 µM | A549 22.8 µM | MCF7 20.2 µM | RPMI-8226 17 µM | Malme-3M 35.1 µM | UACC-62 > 10 µM | NCI-H522 11 µM | ACHN 18.9 µM | HCC 2998 13.8 µM | OVCAR-4 24 µM | BT-549 23.6 µM | SF-268 19.3 µM | COLO 205 6.19 µM | HCT-116 14 µM | SK-OV-3 36.4 µM | TK-10 27.3 µM | K562 12.2 µM

CCOC(=O)/C=C(/C(=O)OCC)n1cnc2c(=O)[nH]c(NC(C)=O)nc21
inactive: HT-29 > 100 µM | KM12 > 100 µM | NCI/ADR-RES > 100 µM | U-251 > 100 µM | A549 > 100 µM | MCF7 > 100 µM | RPMI-8226 > 100 µM | Malme-3M > 100 µM | UACC-62 > 100 µM | NCI-H522 > 100 µM | ACHN > 100 µM | HCC 2998 > 100 µM | OVCAR-4 > 100 µM | BT-549 > 100 µM | SF-268 > 100 µM | COLO 205 > 100 µM | HCT-116 > 100 µM | SK-OV-3 > 100 µM | TK-10 > 100 µM | K562 > 100 µM

CC(=O)Nc1sc([N+](=O)[O-])cc1S(=O)(=O)c1ccc(Cl)cc1
inactive: HT-29 3.13 µM | KM12 2.99 µM | NCI/ADR-RES 3.22 µM | U-251 4.22 µM | A549 2.4 µM | MCF7 2.86 µM | RPMI-8226 3.14 µM | Malme-3M 2.48 µM | UACC-62 1.67 µM | NCI-H522 1.41 µM | ACHN 2.36 µM | HCC 2998 2.04 µM | OVCAR-4 1.86 µM | BT-549 3.64 µM | SF-268 4.35 µM | COLO 205 1.29 µM | HCT-116 2.99 µM | SK-OV-3 2.5 µM | TK-10 5.28 µM | K562 5.47 µM

O=C(CNc1nccs1)Nn1cnc2ccc(S(=O)(=O)Nc3nccs3)cc2c1=O
inactive: HT-29 > 100 µM | KM12 > 100 µM | NCI/ADR-RES > 100 µM | U-251 > 100 µM | A549 > 100 µM | MCF7 > 100 µM | RPMI-8226 > 100 µM | Malme-3M > 100 µM | UACC-62 > 100 µM | NCI-H522 > 100 µM | ACHN > 100 µM | HCC 2998 > 100 µM | OVCAR-4 > 100 µM | BT-549 > 100 µM | SF-268 > 100 µM | COLO 205 > 100 µM | HCT-116 > 100 µM | SK-OV-3 > 100 µM | TK-10 > 100 µM | K562 > 100 µM

CC1CC(=O)Nc2ccc(/N=N/N(C)C)cc2N1C=O (stereo not given)
inactive: HT-29 > 100 µM | KM12 > 100 µM | NCI/ADR-RES > 100 µM | U-251 > 100 µM | A549 > 100 µM | MCF7 > 100 µM | RPMI-8226 > 100 µM | Malme-3M > 100 µM | UACC-62 > 100 µM | NCI-H522 > 100 µM | ACHN > 100 µM | HCC 2998 > 100 µM | OVCAR-4 > 100 µM | BT-549 > 100 µM | SF-268 > 100 µM | COLO 205 > 100 µM | HCT-116 > 100 µM | SK-OV-3 > 100 µM | TK-10 > 100 µM | K562 > 100 µM

COc1cc(/C=C2\CC3C4CC[C@H]5C[C@@H](O)CC[C@]5(C)C4CC[C@]3(C)C2=O)cc(OC)c1OC (stereo not given in full)
inactive: HT-29 9.44 µM | KM12 9.75 µM | NCI/ADR-RES 16.7 µM | U-251 8.26 µM | A549 7.18 µM | MCF7 4.25 µM | RPMI-8226 4.17 µM | Malme-3M 19.5 µM | UACC-62 17.6 µM | NCI-H522 7.93 µM | ACHN 11.8 µM | HCC 2998 7.13 µM | OVCAR-4 4.61 µM | BT-549 24.8 µM | SF-268 24 µM | COLO 205 5.93 µM | HCT-116 7.19 µM | SK-OV-3 11.5 µM | TK-10 27.6 µM | K562 4.68 µM

COc1ccc(/C=C2\CCC(Cc3ccccc3)(CN(C)C)C2=O)cc1 (stereo not given)
inactive: HT-29 32.9 µM | KM12 41.1 µM | NCI/ADR-RES 42.2 µM | U-251 61.7 µM | A549 50.5 µM | MCF7 41.8 µM | RPMI-8226 22.2 µM | Malme-3M 42.3 µM | UACC-62 36.9 µM | NCI-H522 31.8 µM | ACHN 82 µM | HCC 2998 24.4 µM | OVCAR-4 56.8 µM | BT-549 68.5 µM | SF-268 69.5 µM | COLO 205 37.8 µM | HCT-116 28.8 µM | SK-OV-3 > 100 µM | TK-10 > 100 µM | K562 26.4 µM

Cc1cc(OC2OC(CO)C(O)C(O)C2O)ccc1O (stereo not given)
inactive: HT-29 > 100 µM | KM12 > 100 µM | NCI/ADR-RES > 100 µM | U-251 > 100 µM | A549 > 100 µM | MCF7 > 100 µM | RPMI-8226 > 100 µM | Malme-3M > 100 µM | UACC-62 > 100 µM | NCI-H522 > 100 µM | ACHN > 100 µM | HCC 2998 > 100 µM | OVCAR-4 > 100 µM | BT-549 > 100 µM | SF-268 > 100 µM | COLO 205 > 100 µM | HCT-116 > 100 µM | SK-OV-3 > 100 µM | TK-10 > 100 µM | K562 > 100 µM
